# According to patent US20250127801A1, “BRIDGED TRICYCLIC CARBAMOYLPYRIDONE COMPOUNDS AND USES THEREOF” (priority 2023, published 2025):
# Like-named read-outs stand apart in the source and are kept apart here.
# What was measured:
# physchem = settings: 23 °C, thermodynamic from solid; for solubility thermodynamic at 24 h: FaSSIF; for solubility thermodynamic: fassif
# in vitro = settings: human; for CC50 at 5 days: uninfected MT-4 cells
# HIV-1 (IIIB) = assay: microbe, parasite or virus in culture; type: cell-based
# [1] = Human immunodeficiency virus 1, MT4, 120 h, HIV-1 (IIIB) replication in MT-4 cells, 5 days incubation, Cell Titer Glo, read-out: MT4 EC50
# [2] = Human immunodeficiency virus 1, IIIB, MT4, 120 h, read-out: MT4 EC50 (nM)
solubility thermodynamic at 24 h (physchem) [µg/mL],EC50 (HIV-1 (IIIB); [1]) [nM],SMILES,CC50 at 5 days (in vitro) [nM],solubility thermodynamic (physchem) [µg/mL],CC50 (in vitro) [nM],EC50 (HIV-1 (IIIB); [2]) [nM]
4840,21.4,"CC1=NO[C@@]2(CC[C@H](C)N3C[C@H]2n2cc(C(=O)NCc4ccc(F)cc4F)c(=O)c(OCOC(=O)N4CCOC[C@H]4COP(=O)(O)O)c2C3=O)C1 [Compound 64, (((3′S,5S,7′R)-10′-((2,4-difluorobenzyl)carbamoyl)-3,3′-dimethyl-1′,11′-dioxo-1′,4′,5′,11′-tetrahydro-3′H,4H,7′H-spiro[isoxazole-5,6′-[2,7]methanopyrido[1,2-a][1,4]diazonin]-12′-yl)oxy)methyl (3S)-3-((phosphonooxy)methyl)morpholine-4-carboxylate]",≥ 50000,,,
13.5,2.26,"CCCCCCCCCCCCCC(=O)Oc1ccc(CC(=O)Oc2c3n(cc(C(=O)NCc4ccc(F)cc4F)c2=O)[C@@H]2CN(C3=O)[C@@H](C)CC[C@]23CC(C)=NO3)cc1 [Compound 96, [4-[2-[(1R,10S,13S)-4-[(2,4-difluorophenyl)methylcarbamoyl]-3′,10-dimethyl-5,8-dioxo-spiro[2,9-diazatricyclo[7.4.1.02,7]tetradeca-3,6-diene-13,5′-4H-isoxazole]-6-yl]oxy-2-oxo-ethyl]phenyl] tetradecanoate]",≥ 50000,,,
,,"CC1=NO[C@@]2(CC[C@H](C)N3C[C@H]2n2cc(C(=O)NCc4ccc(F)cc4F)c(=O)c(OCOC(=O)OCCC(C)(C)c4c(CC(=O)N[C@@H](CC(=O)O)C(=O)O)cc(C)cc4OP(=O)(O)O)c2C3=O)C1 [Compound 24, (2-(2-(4-((((((3′S,5S,7′R)-10′-((2,4-difluorobenzyl)carbamoyl)-3,3′-dimethyl-1′,11′-dioxo-1′,4′,5′,11′-tetrahydro-3′H,4H,7′H-spiro[isoxazole-5,6′-[2,7]methanopyrido[1,2-a][1,4]diazonin]-12′-yl)oxy)methoxy)carbonyl)oxy)-2-methylbutan-2-yl)-5-methyl-3-(phosphonooxy)phenyl)acetyl)-L-aspartic acid]",,4900,12300,1.98
1980,0.762,"CC1=NO[C@@]2(CC[C@H](C)N3C[C@H]2n2cc(C(=O)NCc4ccc(F)cc4F)c(=O)c(OCOC(=O)N(C)C[C@@H]4CCCN4)c2C3=O)C1 [Compound 13, (((3′S,5S,7′R)-10′-((2,4-difluorobenzyl)carbamoyl)-3,3′-dimethyl-1′,11′-dioxo-1′,4′,5′,11′-tetrahydro-3′H,4H,7′H-spiro[isoxazole-5,6′-[2,7]methanopyrido[1,2-a][1,4]diazonin]-12′-yl)oxy)methyl methyl(((S)-pyrrolidin-2-yl)methyl)carbamate]",10800,,,
4850,2.51,"CC1=NO[C@@]2(CC[C@H](C)N3C[C@H]2n2cc(C(=O)NCc4ccc(F)cc4F)c(=O)c(OCOC(=O)O[C@H]4CCC[C@@H]4OP(=O)(O)O)c2C3=O)C1 [Compound 46, (((3′S,5S,7′R)-10′-((2,4-difluorobenzyl)carbamoyl)-3,3′-dimethyl-1′,11′-dioxo-1′,4′,5′,11′-tetrahydro-3′H,4H,7′H-spiro[isoxazole-5,6′-[2,7]methanopyrido[1,2-a][1,4]diazonin]-12′-yl)oxy)methyl ((1S,2S)-2-(phosphonooxy)cyclopentyl) carbonate]",15100,,,
,,"CC1=NO[C@@]2(CC[C@H](C)N3C[C@H]2n2cc(C(=O)NCc4ccc(F)cc4F)c(=O)c(OCOC(=O)CC(C)(C)c4c(CC(=O)N5CCOCC5)cc(C)cc4OP(=O)(O)O)c2C3=O)C1 [Compound 58, (((3′S,5S,7′R)-10′-((2,4-difluorobenzyl)carbamoyl)-3,3′-dimethyl-1′,11′-dioxo-1′,4′,5′,11′-tetrahydro-3′H,4H,7′H-spiro[isoxazole-5,6′-[2,7]methanopyrido[1,2-a][1,4]diazonin]-12′-yl)oxy)methyl 3-methyl-3-(4-methyl-2-(2-morpholino-2-oxoethyl)-6-(phosphonooxy)phenyl)butanoate]",,4640,29000,5.78
,,"CC1=NO[C@@]2(CC[C@H](C)N3C[C@H]2n2cc(C(=O)NCc4ccc(F)cc4F)c(=O)c(OC(=O)N(C)c4ncccc4CN(CC(=O)O)C(=O)OCOP(=O)(O)O)c2C3=O)C1 [Compound 6, N-((2-(((((3′S,5S,7′R)-10′-((2,4-difluorobenzyl)carbamoyl)-3,3′-dimethyl-1′,11′-dioxo-1′,4′,5′,11′-tetrahydro-3′H,4H,7′H-spiro[isoxazole-5,6′-[2,7]methanopyrido[1,2-a][1,4]diazonin]-12′-yl)oxy)carbonyl)(methyl)amino)pyridin-3-yl)methyl)-N-(((phosphonooxy)methoxy)carbonyl)glycine]",,4810,10100,0.917
90,1.18,"CC1=NO[C@@]2(CC[C@H](C)N3C[C@H]2n2cc(C(=O)NCc4ccc(F)cc4F)c(=O)c(OCc4oc(=O)oc4C)c2C3=O)C1 [Compound 22, (3′S,5S,7′R)—N-(2,4-difluorobenzyl)-3,3′-dimethyl-12′-((5-methyl-2-oxo-1,3-dioxol-4-yl)methoxy)-1′,11′-dioxo-1′,4′,5′,11′-tetrahydro-3′H,4H,7′H-spiro[isoxazole-5,6′-[2,7]methanopyrido[1,2-a][1,4]diazonine]-10′-carboxamide]",12400,,,
,,"CC1=NO[C@@]2(CC[C@H](C)N3C[C@H]2n2cc(C(=O)NCc4ccc(F)cc4F)c(=O)c(OCOC(=O)N(C)Cc4cc(C(=O)O)ccc4OP(=O)(O)O)c2C3=O)C1 [Compound 76, 3-(((((((3′S,5S,7′R)-10′-((2,4-difluorobenzyl)carbamoyl)-3,3′-dimethyl-1′,11′-dioxo-1′,4′,5′,11′-tetrahydro-3′H,4H,7′H-spiro[isoxazole-5,6′-[2,7]methanopyrido[1,2-a][1,4]diazonin]-12′-yl)oxy)methoxy)carbonyl)(methyl)amino)methyl)-4-(phosphonooxy)benzoic acid]",,4060,12900,4.41
,,"CC1=NO[C@@]2(CC[C@H](C)N3C[C@H]2n2cc(C(=O)NCc4ccc(F)cc4F)c(=O)c(OCOC(=O)N(C)c4ncccc4CN(C)C(=O)OCOP(=O)(O)O)c2C3=O)C1 [Compound 62, (phosphonooxy)methyl ((2-((((((3′S,5S,7′R)-10′-((2,4-difluorobenzyl)carbamoyl)-3,3′-dimethyl-1′,11′-dioxo-1′,4′,5′,11′-tetrahydro-3′H,4H,7′H-spiro[isoxazole-5,6′-[2,7]methanopyrido[1,2-a][1,4]diazonin]-12′-yl)oxy)methoxy)carbonyl)(methyl)amino)pyridin-3-yl)methyl)(methyl)carbamate]",,5030,14600,1.73
13,3.03,"CCCCCCCCCCCCCC(=O)Oc1ccc(C(=O)Oc2c3n(cc(C(=O)NCc4ccc(F)cc4F)c2=O)[C@@H]2CN(C3=O)[C@@H](C)CC[C@]23CC(OC)=NO3)cc1 [Compound 99, (3′S,5S,7′R)-10′-((2,4-difluorobenzyl)carbamoyl)-3-methoxy-3′-methyl-1′,11′-dioxo-1′,4′,5′,11′-tetrahydro-3′H,4H,7′H-spiro[isoxazole-5,6′-[2,7]methanopyrido[1,2-a][1,4]diazonin]-12′-yl 4-(tetradecanoyloxy)benzoate]",≥ 50000,,,
4860,2.22,"CC1=NO[C@@]2(CC[C@H](C)N3C[C@H]2n2cc(C(=O)NCc4ccc(F)cc4F)c(=O)c(OCOC(=O)OCC4(COP(=O)(O)O)CCC4)c2C3=O)C1 [Compound 47, (((3′S,5S,7′R)-10′-((2,4-difluorobenzyl)carbamoyl)-3,3′-dimethyl-1′,11′-dioxo-1′,4′,5′,11′-tetrahydro-3′H,4H,7′H-spiro[isoxazole-5,6′-[2,7]methanopyrido[1,2-a][1,4]diazonin]-12′-yl)oxy)methyl ((1-((phosphonooxy)methyl)cyclobutyl)methyl) carbonate]",11200,,,
4950,1.49,"CC1=NO[C@@]2(CC[C@H](C)N3C[C@H]2n2cc(C(=O)NCc4ccc(F)cc4F)c(=O)c(OCOC(=O)N(C)c4ncccc4COP(=O)(O)O)c2C3=O)C1 [Compound 2, (((3′S,5S,7′R)-10′-((2,4-difluorobenzyl)carbamoyl)-3,3′-dimethyl-1′,11′-dioxo-1′,4′,5′,11′-tetrahydro-3′H,4H,7′H-spiro[isoxazole-5,6′-[2,7]methanopyrido[1,2-a][1,4]diazonin]-12′-yl)oxy)methyl methyl(3-((phosphonooxy)methyl)pyridin-2-yl)carbamate]",10200,,,
,,"CC1=NO[C@@]2(CC[C@H](C)N3C[C@H]2n2cc(C(=O)NCc4ccc(F)cc4F)c(=O)c(OCOC(=O)N(C)Cc4ccc(OP(=O)(O)O)cc4)c2C3=O)C1 [Compound 39, (((3′S,5S,7′R)-10′-((2,4-difluorobenzyl)carbamoyl)-3,3′-dimethyl-1′,11′-dioxo-1′,4′,5′,11′-tetrahydro-3′H,4H,7′H-spiro[isoxazole-5,6′-[2,7]methanopyrido[1,2-a][1,4]diazonin]-12′-yl)oxy)methyl methyl(4-(phosphonooxy)benzyl)carbamate]",,4830,≥ 50000,88.7
2,1.9,"CC1=NO[C@@]2(CC[C@H](C)N3C[C@H]2n2cc(C(=O)NCc4ccc(F)cc4F)c(=O)c(OCOC(=O)N(C)c4ncccc4COC(=O)[C@H](C)N)c2C3=O)C1 [Compound 11, (2-((((((3′S,5S,7′R)-10′-((2,4-difluorobenzyl)carbamoyl)-3,3′-dimethyl-1′,11′-dioxo-1′,4′,5′,11′-tetrahydro-3′H,4H,7′H-spiro[isoxazole-5,6′-[2,7]methanopyrido[1,2-a][1,4]diazonin]-12′-yl)oxy)methoxy)carbonyl)(methyl)amino)pyridin-3-yl)methyl L-alaninate]",14500,,,
